# According to patent publication US5840893A, “Compounds for treating infectious diseases” (priority 1996, dated 1998):
# Entries after “also recorded” stand apart in the source; their conditions may differ.
# Experiments:
# HIV-1 = test: Inhibition of HIV-1 replication in cultured macrophages (Table I); type: cell-based; conditions: Human immunodeficiency virus 1, Macrophage; 50% inhibition of viral growth, RT or p24, macrophages
# Experimental: A quantitative measurement of the activity of the compounds of the invention to block the replication of HIV-1 in non-dividing cells can be determined by culture of a macrophage-tropic strain of HIV-1 on peripheral blood-derived macrophages. The cells are cultured for 5-6 days prior to infection in a medium consisting of DMEM supplemented with 10% type A/B human serum and 200 U/ml Macrophage Colony Stimulating Factor, with half the medium changed after 3 days, to reach a density of about 10^6 cells per 5 ml well. A macrophage-tropic viral stock may be grown on these cells. The concentration of infectious particles in the stock is estimated by measurement of p24 antigen concentration.
# To test the effect of compounds of the invention on HIV- 1 infection in the above-described culture system, the medium is removed and replaced with medium containing HIV-1 at a concentration of 1 ng of p24 (10^4 TCID50 /ml (TCID=tissue culture infectious doses)) and a known concentration of the compound of the invention (the inhibitor). After 24 hours, the cultures are washed to remove non-adherent virus and the culture is re-fed with medium containing the inhibitor at the desired concentration. The amount of replication of HIV-1 is estimated by an assay of the reverse transcriptase activity or by an assay of the concentration of p24 antigen in the culture medium every 2-3 days throughout the post-infection period. In a preferred embodiment the anti-HIV potency of the candidate drug is measured by comparison of the concentration of reverse transcriptase (RT) or of p24 antigen in the medium of the treated and control cultures at the time of the peak of these values in non-treated control cultures, that is about day 5 or 6 post-infection. Repetition at various levels of inhibitor allows for the calculation of the concentration of inhibitor that achieves 50% inhibition of viral growth, IC50. Table I discloses the IC50 of various inhibitors.
# HIV-1ADA [1] = test: RT activity in supernatant of HIV-1ADA-infected monocytes; type: cell-based, HIV-1ADA in primary human monocytes
# Experimental: The cultures were treated with none or between 10^-12 and 10^-6M Compound No. 2 and, simultaneously with the beginning of treatment, the cells were exposed to the monocyte-tropic strain HIV-1ADA about 0.01 TCID50 /cell (1 ng p24/10^6 cells) for 2 hours. Samples were withdrawn at days 3, 6, 10, 14 and 17 after infection and assayed for reverse transcription activity.
# FIGS. 2B and 2C show the effects of various concentrations of Compound No. 2 on the production of HIV-1 in monocyte cultures not supplemented with M-CSF. In these studies MOI, as determined by concentration of p24 antigen was; FIG. 2B (8 ng/10^6 cells) and FIG. 2C (0.8 ng/10^6 cells).
# Primary human monocytes were obtained from peripheral blood by Ficoll-Hypaque centrifugation and adherence to plastic as described previously. Gartner S. P., et al., 1986, Science 233:215. Briefly, after Ficoll-Hypaque (Pharmacia) separation, PBMCs were washed 4 times with DMEM (the last wash was done at 800 rpm to remove platelets) and resuspended in monocyte culture medium [DMEM supplemented with 1 mM glutamine, 10% heat-inactivated human serum, 1% penicillin+streptomycin mixture (Sigma)] at a density of 6×10^6 cells/ml. Cells were seeded in 24-well plates (1 ml per well) and incubated for 2 h at 37° C., 5% CO2. Following incubation, cells were washed 3 times with DMEM to remove non-adherent cells and incubation was continued in monocyte culture medium supplemented with 250 U/ml human M-CSF (Sigma). Cells were allowed to mature for 7 days prior to infection with the monocyte-tropic strain, HIV-1ADA. Nuovo, G. J., et al., 1992, Diagn. Mol. Pathol. 1:98. Two hours after infection, cells were washed with medium and cultured in RPMI supplemented with 10% human serum. […]
# Macrophage-tropic strain HIV-1ADA was amplified in primary human monocytes and concentrated to produce stock with TCID50 of about 10^5 /ml. The concentration of HIV-1 was determined by immunoassay of viral p24, concentration; using a conversion factor of […].
# (§1) For the reverse transcriptase (RT) assay, 10 μl of culture supernatant was added to 40 μl of reaction mixture (final composition was 50 mM Tris-HCl, pH 7.8; 20 mM KCl; 5 mM MgCl2; 1 mM DTT; 0.1% Triton X-100; 0.2 OD/ml polyA; 0.2 OD/ml oligo(dT)12-18; and 40 μCi/ml ^3 H-dTTP (76 Ci/mmol, DuPont) and incubated 2 hr at 37° C. 5 μl of the reaction mixture was then spotted onto the DE 81 (Whatman) paper. Paper was air dried and washed 5 times with 5% Na2 HPO4, followed by rinsing with distilled water. After air drying, paper was put on a Flexi Filter plate (Packard), covered with scintillation fluid and counted in a Top Count Microplate Counter (Packard). Results are expressed as counts per minute in 1 ml of supernatant (cpm/ml).
# HIV-1ADA [2] = test: RT activity in supernatant of HIV-1ADA-infected mitogen-stimulated peripheral blood leukocytes; type: cell-based, HIV-1ADA in human PBMC
# Experimental: PBMCs were purified by Ficoll-Hypaque centrifugation and activated by 10 μg/ml PHA-P (Sigma) and 20 U/ml recombinant human IL-2 (rhIL-2) in RPMI 1640 supplemented with 10% FBS (HyClone). After 24 h incubation, cells were washed and inoculated with HIV-1ADA in RPMI 1640 supplemented with 10% FBS. After a 2 h adsorption, free virus was washed away and cells were cultured in RPMI 1640 supplemented with 10% FBS and 20 U/ml rhIL-2.
# as §1
# monocyte cultures = test: Cytotoxicity in monocyte cultures (LDH release, trypan blue exclusion); type: cell-based, human; conditions: up to 10 μM; LDH release and trypan blue exclusion
# reverse transcriptase = target: T1, reverse transcriptase (HIV-1 M:B_HXB2R, UniProt P04585); test: Inhibition of reverse transcriptase; type: biochemical; conditions: data not shown
# T1 construct: infection experiments used HIV-1 ADA virus supernatant
# [3] = Table IV; measured in a 25 gr mouse
# Experimental: Standard addition curves for each test compound were constructed by adding increased amounts of drug to mouse or human A^+ plasma (Long Island Blood Services; Melville, N.Y.). […] The eluted sample was reduced to dryness in a rotary evaporator and resuspended in 1.0 ml Buffer A.
# Female ND4 Swiss Webster mice (21-24 g) were obtained from Harlan Sprague Dawley (Indianapolis, Ind.) and randomly placed in groups of five in cages with free access to food and water. […] The other CNI compounds were administered intraperitoneally or by oral gavage as a solution in water titrated with sufficient HCl to dissolve the drug. At various time points, ranging from 5 min to 4 days, a single group of animals was euthanized by carbon dioxide inhalation and bled by cardiac puncture using heparin as an anticoagulant. The blood from the five mice in the group was pooled and centrifuged at 14000×g for 10 min. The volume of plasma was measured, and equal volume of Buffer A added, and the mixture extracted and analyzed as described above, except that the dried eluates were resuspended in 200 μl Buffer A and 100 μl was injected onto the high performance liquid chromatography (HPLC) system.
# The area under the plasma concentration-time curve (AUC) was determined, and bioavailability was measured as AUCoral /AUCi.p.. […] The volume of distribution (VD) was calculated as dose/B, and the total clearance rate (Cltot) calculated as β*VD. Cmax and tmax are the maximal plasma concentration and time of this measurement, respectively.
smiles,measurement,setting,value
"CC(=O)c1cc(Nc2cc(C)[n+](C)c(N)n2)cc(C(C)=O)c1.[I-] [Compound No. 2, 2-amino-4-(3,5-diacetylphenyl)amino-1,6-dimethylpyrimidinium iodide]",IC50,HIV-1,1 nM
same,IC50,"HIV-1ADA [1]; Homo sapiens, Monocyte, FIG. 2A, M-CSF, 1 ng p24/10^6 cells",0.1 to 1 nM
same,IC50,"HIV-1ADA [1]; Homo sapiens, Monocyte, FIG. 2B, without M-CSF, 8 ng p24/10^6 cells",~10 nM
same,IC50,"HIV-1ADA [1]; Homo sapiens, Monocyte, FIG. 2C, without M-CSF, 0.8 ng p24/10^6 cells",< 1 nM
same,IC50,"HIV-1ADA [1]; Human immunodeficiency virus 1, Monocyte, FIG. 2, HIV-1 replication in monocytes, estimated",0.1 to 1 nM
same,reduction in viral output,"HIV-1ADA [2]; 1 and 10 μM, lower MOI (1 ng p24/10^6 cells), FIG. 3B",~2 fold
same,anti-viral effect on activated PBLs / replicating cells,"HIV-1ADA [2]; actively dividing cell populations, FIG. 3",much less expressed in these actively dividing cell populations; also recorded: No anti-viral effect was detected
same,effect on viral production,"HIV-1ADA [2]; up to 10 μM, higher MOI (10 ng p24/10^6 cells), FIG. 3A",only a marginal effect on viral production
same,cytotoxic effect,monocyte cultures,without toxic effects; also recorded: no cytotoxic effect was observed
same,inhibition of reverse transcriptase,reverse transcriptase,does not inhibit reverse transcriptase
same,Clearance,[3],35.35 mL/min
